Results: patent publication US20250340563A1, “FUSED PYRIDAZINE DERIVATIVES AS NLRP3 INHIBITORS” (Takeda Pharmaceutical Company Limited, priority 2022, published 2025)

molecular target: NLRP3 inflammasome (Homo sapiens, UniProt Q96P20); experiment: IL-1β assay in IFN-γ-differentiated, LPS-primed, ATP-activated THP-1 cells (ELISA); type: cell-based; details: 50 ng/mL LPS priming, 2.5 mM ATP activation, 2 hours
Procedure: Monocytic THP-1 cells (ATCC: TIB-202) are maintained in accordance with the provider's instructions in RPMI media (Life Technologies, Cat #A10491-01); RPMI is supplemented with 10% heat inactivated fetal bovine serum (Hyclone Cat #SH30396.03). The cells are differentiated into macrophages by the addition of 25 ng/mL IFN-7 (PeproTech, Cat #300-02-100UG) for 24 hours at 37° C./5% CO2. Media is exchanged with fresh media with no FBS, and the cells are treated with 50 ng/mL LPS (priming step) for 24 hours at 37° C./5% CO2 (LPS-EK: Invivogen, Cat #tlrl-peklps). Media is exchanged with fresh media with no FBS. The cells are plated at 40,000 cells per well in 384-well flat-bottom cell culture plates (Costar 3764) containing compounds (added in 1:1000) in a 1:3.16 serial dilution series in DMSO and are incubated for 30 minutes at 37° C./5% CO2. The NLRP3 inflammasome is activated with the addition of 2.5 mM ATP (Sigma Cat #A3377) and the cells are incubated for 2 hours at 37° C./5% CO2. At the end of the incubation period, 40 μL supernatant is removed, and […] are monitored using an ELISA (Human […], R&D systems, Cat #DY201) in accordance with the manufacturer's instructions.
The IC50 values are calculated from a plot of percentage of inhibition versus the inhibitor concentration by a logistics curve fit according to: Y=[Bottom+(Top−Bottom)]/(1+10^[(Log IC50−X)·Hill Slope], where Y is the % inhibition at the inhibitor concentration, X, “Bottom” is the lowest inhibition value, i.e. 0%, “Top” is the maximum inhibition value, i.e. 100%, and the “Hill Slope” describes the slope of the sigmoidal curve between the “Bottom” and “Top” values. The curve fitting was conducted with internally developed software.

Sequence of NLRP3 inflammasome (Q96P20 whole entry): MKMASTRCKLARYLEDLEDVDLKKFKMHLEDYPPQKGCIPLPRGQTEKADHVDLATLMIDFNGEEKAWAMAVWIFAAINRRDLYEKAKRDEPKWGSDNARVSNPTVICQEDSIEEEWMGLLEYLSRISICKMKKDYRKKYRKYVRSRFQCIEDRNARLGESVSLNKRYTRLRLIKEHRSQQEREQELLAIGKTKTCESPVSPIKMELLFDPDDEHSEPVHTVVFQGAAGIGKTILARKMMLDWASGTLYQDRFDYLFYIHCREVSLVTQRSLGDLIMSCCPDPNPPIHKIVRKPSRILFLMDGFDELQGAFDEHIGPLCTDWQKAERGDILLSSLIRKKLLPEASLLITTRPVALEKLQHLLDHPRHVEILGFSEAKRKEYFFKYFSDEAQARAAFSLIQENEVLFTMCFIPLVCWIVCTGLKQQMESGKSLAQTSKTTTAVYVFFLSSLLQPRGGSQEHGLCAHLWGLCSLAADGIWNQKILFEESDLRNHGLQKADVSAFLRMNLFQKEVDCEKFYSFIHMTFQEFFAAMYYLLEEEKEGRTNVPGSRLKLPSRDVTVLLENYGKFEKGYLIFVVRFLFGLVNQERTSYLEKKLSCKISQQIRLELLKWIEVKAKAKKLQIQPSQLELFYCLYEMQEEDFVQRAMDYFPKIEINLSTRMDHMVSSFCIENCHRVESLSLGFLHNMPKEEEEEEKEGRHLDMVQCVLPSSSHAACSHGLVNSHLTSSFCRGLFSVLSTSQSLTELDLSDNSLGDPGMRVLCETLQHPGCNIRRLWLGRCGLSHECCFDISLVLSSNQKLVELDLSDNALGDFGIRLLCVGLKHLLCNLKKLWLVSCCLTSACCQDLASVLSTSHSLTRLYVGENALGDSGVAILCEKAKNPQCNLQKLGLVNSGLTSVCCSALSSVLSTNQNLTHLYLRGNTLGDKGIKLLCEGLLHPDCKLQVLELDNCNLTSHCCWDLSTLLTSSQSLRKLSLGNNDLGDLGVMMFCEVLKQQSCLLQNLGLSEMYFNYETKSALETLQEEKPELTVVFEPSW

Point of comparison: `CC(C)(C)c1ccc(-c2nnc(Nc3cccc(O)c3)c3ccccc23)cn1` [Example 9, 3-((4-(6-(tert-butyl)pyridin-3-yl)phthalazin-1-yl)amino)phenol], IC50 1660 nM. Against it:
- O[C@]1(C(F)(F)F)CCC[C@@H](Nc2nnc(-c3ccc(Cl)cc3)c3ccccc23)C1 (racemic) [Example 114] — within 1.5-fold, 1230 nM
- CN1CCCC(Nc2nnc(-c3ccc(C(F)F)nc3)c3ccccc23)C1 (stereo not drawn) [Example 2, 4-(6-(difluoromethyl)pyridin-3-yl)-N-(1-methylpiperidin-3-yl)phthalazin-1-amine] — 3.2-fold higher, 5250 nM
- CC1(c2ccc(-c3nnc(Nc4cccc(O)c4)c4ccccc34)cc2)CC1 [Example 3, 3-((4-(4-(1-methylcyclopropyl)phenyl)phthalazin-1-yl)amino)phenol] — within 1.5-fold, 1120 nM
- Oc1cccc(Nc2nnc(-c3ccc(C4(C(F)(F)F)CC4)cc3)c3ccccc23)c1 [Example 4, 3-((4-(4-(1-(trifluoromethyl)cyclopropyl)phenyl)phthalazin-1-yl)amino)phenol] — within 1.5-fold, 1410 nM
- CC(C)(C)c1ccc(-c2nnc(Nc3cccc(O)c3)c3ccccc23)cc1 [Example 5, 3-((4-(4-(tert-butyl)phenyl)phthalazin-1-yl)amino)phenol] — within 1.5-fold, 1440 nM
- Oc1cccc(Nc2nnc(-c3cccc(C4CCC4)c3)c3ccccc23)c1 [Example 6, 3-((4-(3-cyclobutylphenyl)phthalazin-1-yl)amino)phenol] — 1.7-fold higher, 2880 nM
- CC(C)c1ccc(-c2nnc(Nc3cccc(O)c3)c3ccccc23)cc1 [Example 7, 3-((4-(4-isopropylphenyl)phthalazin-1-yl)amino)phenol] — 1.7-fold lower, 977 nM
- Oc1cccc(Nc2nnc(-c3ccc(C4CC4)cc3F)c3ccccc23)c1 [Example 8, 3-((4-(4-cyclopropyl-2-fluorophenyl)phthalazin-1-yl)amino)phenol] — 1.9-fold lower, 891 nM
- Oc1cccc(Nc2nnc(-c3cccc(C4CC4)c3)c3ccccc23)c1 [Example 10, 3-((4-(3-cyclopropylphenyl)phthalazin-1-yl)amino)phenol] — 3.8-fold lower, 437 nM
- CN1CCCC(Nc2nnc(-c3ccc(F)cc3)c3ccccc23)C1 (stereo not drawn) [Example 11, 4-(4-fluorophenyl)-N-(1-methylpiperidin-3-yl)phthalazin-1-amine] — 1.8-fold lower, 933 nM
- Cc1ccccc1-c1nnc(NC2CCCN(C)C2)c2ccccc12 (stereo not drawn) [Example 12, N-(1-methylpiperidin-3-yl)-4-(o-tolyl)phthalazin-1-amine] — 1.5-fold higher, 2570 nM
- CN1CCCC(Nc2nnc(-c3ccc(C(F)(F)F)cc3)c3ccccc23)C1 (stereo not drawn) [Example 13, N-(1-methylpiperidin-3-yl)-4-(4-(trifluoromethyl)phenyl)phthalazin-1-amine] — 26-fold lower, 65 nM
- CN1CCCC(Nc2nnc(-c3ccccc3Cl)c3ccccc23)C1 (stereo not drawn) [Example 14, 4-(2-chlorophenyl)-N-(1-methylpiperidin-3-yl)phthalazin-1-amine] — 1.8-fold higher, 2950 nM
- Cc1ccc(-c2nnc(NC3CCCN(C)C3)c3ccccc23)cc1 (stereo not drawn) [Example 15, N-(1-methylpiperidin-3-yl)-4-(p-tolyl)phthalazin-1-amine] — 14-fold lower, 115 nM
- CN1CCCC(Nc2nnc(-c3cccc(Cl)c3)c3ccccc23)C1 (stereo not drawn) [Example 17, 4-(3-chlorophenyl)-N-(1-methylpiperidin-3-yl)phthalazin-1-amine] — 2.7-fold higher, 4470 nM
- Cc1cccc(-c2nnc(NC3CCCN(C)C3)c3ccccc23)c1 (stereo not drawn) [Example 18, N-(1-methylpiperidin-3-yl)-4-(m-tolyl)phthalazin-1-amine] — within 1.5-fold, 1150 nM
- CN1CCCC(Nc2nnc(-c3ccc(C(C)(C)C)nc3)c3ccccc23)C1 (stereo not drawn) [Example 20, 4-(6-(tert-butyl)pyridin-3-yl)-N-(1-methylpiperidin-3-yl)phthalazin-1-amine] — 2.7-fold lower, 626 nM
- CN1CCCC(Nc2nnc(-c3ccc(C(F)(F)F)nc3)c3ccccc23)C1 (stereo not drawn) [Example 22, N-(1-methylpiperidin-3-yl)-4-(6-(trifluoromethyl)pyridin-3-yl)phthalazin-1-amine] — 1.9-fold lower, 897 nM
- CN1CCC[C@@H](Nc2nnc(-c3ccc(O)cc3)c3ccncc23)C1 [Example 23, (R)-4-(4-((1-methylpiperidin-3-yl)amino)pyrido[3,4-d]pyridazin-1-yl)phenol] — 6-fold higher, 10000 nM
- CN1CCC[C@@H](Nc2nnc(-c3ccc(OC(F)(F)F)c(C#N)c3)c3ccncc23)C1 [Example 24, (R)-5-(4-((1-methylpiperidin-3-yl)amino)pyrido[3,4-d]pyridazin-1-yl)-2-(trifluoromethoxy)benzonitrile] — 11-fold lower, 157 nM
- COc1ccc(-c2nnc(N[C@@H]3CCCN(C)C3)c3cnccc23)cc1F [Example 25, (R)-1-(3-fluoro-4-methoxyphenyl)-N-(1-methylpiperidin-3-yl)pyrido[3,4-d]pyridazin-4-amine] — 8.3-fold lower, 199 nM
- CN1CCC[C@@H](Nc2nnc(-c3ccc4c(c3)OCCO4)c3ccncc23)C1 [Example 26, (R)-1-(2,3-dihydrobenzo[b][1,4]dioxin-6-yl)-N-(1-methylpiperidin-3-yl)pyrido[3,4-d]pyridazin-4-amine] — 2.8-fold lower, 603 nM
- CN1CCC[C@@H](Nc2nnc(-c3ccc(OC(F)F)cc3)c3ccncc23)C1 [Example 27, (R)-1-(4-(difluoromethoxy)phenyl)-N-(1-methylpiperidin-3-yl)pyrido[3,4-d]pyridazin-4-amine] — 44-fold lower, 38 nM
- Cc1cc(Cl)ccc1-c1nnc(N[C@@H]2CCCN(C)C2)c2cnccc12 [Example 31, (R)-1-(4-chloro-2-methylphenyl)-N-(1-methylpiperidin-3-yl)pyrido[3,4-d]pyridazin-4-amine] — 49-fold lower, 34 nM
- CN1CCC[C@@H](Nc2nnc(-c3ccc(OC(F)(F)F)cc3)c3ccncc23)C1 [Example 32, (R)—N-(1-methylpiperidin-3-yl)-1-(4-(trifluoromethoxy)phenyl)pyrido[3,4-d]pyridazin-4-amine] — 46-fold lower, 36 nM
- CN1CCC[C@@H](Nc2nnc(-c3ccc(C(F)(F)F)cc3F)c3ccncc23)C1 [Example 33, (R)-1-(2-fluoro-4-(trifluoromethyl)phenyl)-N-(1-methylpiperidin-3-yl)pyrido[3,4-d]pyridazin-4-amine] — 50-fold lower, 33 nM
- CN1CCC[C@@H](Nc2nnc(-c3ccc(C(F)(F)F)cc3)c3ccncc23)C1 [Example 34, (R)—N-(1-methylpiperidin-3-yl)-1-(4-(trifluoromethyl)phenyl)pyrido[3,4-d]pyridazin-4-amine] — 59-fold lower, 28 nM
- CN1CCC[C@@H](Nc2nnc(-c3ccc(C(F)F)cc3)c3ccncc23)C1 [Example 37, (R)-1-(4-(difluoromethyl)phenyl)-N-(1-methylpiperidin-3-yl)pyrido[3,4-d]pyridazin-4-amine] — 22-fold lower, 77 nM
- Cc1ccc(-c2nnc(Nc3cccc(O)c3)c3ccccc23)cc1 [Example 38, 3-((4-(p-tolyl)phthalazin-1-yl)amino)phenol] — within 1.5-fold, 1120 nM
- CN1CCCC(Nc2nnc(-c3ccccc3)c3ccccc23)C1 (stereo not drawn) [Example 42, N-(1-methylpiperidin-3-yl)-4-phenylphthalazin-1-amine] — within 1.5-fold, 1150 nM
- COc1ccc(-c2nnc(N(C)C3CCCN(C)C3)c3ccccc23)cc1 (stereo not drawn) [Example 45, 4-(4-methoxyphenyl)-N-methyl-N-(1-methylpiperidin-3-yl)phthalazin-1-amine] — 2.5-fold higher, 4120 nM
- COc1cc(Cl)ccc1-c1nnc(NC2CCCN(C)C2)c2cnccc12 (stereo not drawn) [Example 47, 1-(4-chloro-2-methoxyphenyl)-N-(1-methylpiperidin-3-yl)pyrido[3,4-d]pyridazin-4-amine] — 2.4-fold lower, 692 nM
- COc1cc(Cl)ccc1-c1nnc(NC2CCCN(C)C2)c2ccncc12 (stereo not drawn) [Example 48, 4-(4-chloro-2-methoxyphenyl)-N-(1-methylpiperidin-3-yl)pyrido[3,4-d]pyridazin-1-amine] — 1.9-fold higher, 3090 nM
- Cc1cc(Cl)ccc1-c1nnc(NC2CCCN(C)C2)c2cnccc12 (stereo not drawn) [Example 49, 1-(4-chloro-2-methylphenyl)-N-(1-methylpiperidin-3-yl)pyrido[3,4-d]pyridazin-4-amine] — 5.8-fold lower, 288 nM
- Cc1cc(Cl)ccc1-c1nnc(NC2CCCN(C)C2)c2ccncc12 (stereo not drawn) [Example 50, 4-(4-chloro-2-methylphenyl)-N-(1-methylpiperidin-3-yl)pyrido[3,4-d]pyridazin-1-amine] — within 1.5-fold, 1320 nM
- CN1CCCC(Nc2nnc(-c3ccc(Cl)cc3Cl)c3ccncc23)C1 (stereo not drawn) [Example 51, 1-(2,4-dichlorophenyl)-N-(1-methylpiperidin-3-yl)pyrido[3,4-d]pyridazin-4-amine] — 11-fold lower, 158 nM
- CN1CCCC(Nc2nnc(-c3ccc(Cl)cc3Cl)c3cnccc23)C1 (stereo not drawn) [Example 52, 4-(2,4-dichlorophenyl)-N-(1-methylpiperidin-3-yl)pyrido[3,4-d]pyridazin-1-amine] — within 1.5-fold, 2400 nM
- COc1ccc(-c2nnc(N[C@@H]3CCCN(C)C3)c3ccccc23)c(F)c1 [Example 53, (R)-4-(2-fluoro-4-methoxyphenyl)-N-(1-methylpiperidin-3-yl)phthalazin-1-amine] — 42-fold lower, 40 nM
